Patent US20220184092A1, “ANTI-VIRAL ACTIVITY OF VPS34 INHIBITORS” (Deciphera Pharmaceuticals, LLC, priority 2020, published 2022)
Where two headings read alike, the source gives them in different places.

How the values were obtained:
SARS-CoV-2 = experiment: microbe, parasite or virus in culture; assay type: cell-based; conditions: Severe acute respiratory syndrome coronavirus 2, A549, 48 h; read-out: IC50 for inhibition of SARS CoV-2 mediated cell killing
SARS CoV-2 = SARS CoV-2 CPE assay for antiviral activity in Vero E6 host cells; assay type: cell-based, coronavirus USA_WA1/2020 SARS CoV-2; conditions: read-out: IC50 for inhibition of SARS CoV-2 mediated cell killing
Vero E6 cells = experiment: in vitro; assay type: cell-based; conditions: African green monkey, 72 h
Procedure: (§1) Compound cytotoxicity (CC50) is assessed in a BSL-2 counter screen as follows: Host cells in media are added in 25 μl aliquots (4000 cells/well) to each well of assay ready plates prepared with test compounds as above. […] DMSO is maintained at a constant concentration for all wells (0.3%) as dictated by the dilution factor of stock test compound concentrations. After incubating plates at 37° C./5% CO2 and 90% humidity for 72 hours, 30 μl Cell Titer-Glo (Promega) is added to each well. Luminescence is read using a BMG PHERAstar plate reader following incubation at room temperature for 10 minutes to measure cell viability.

in vitro = assay type: cell-based; conditions: African green monkey
Procedure: as §1

[1] = Vero C1008, Vero E6 cells, CPE assay, 72 hours, 10-point dose response, high concentration 15 μM

| SMILES | IC50 (SARS-CoV-2) | IC50 (SARS CoV-2; [1]) | CC50 (Vero E6 cells) | CC50 at 72 h (in vitro) | IC50 (SARS CoV-2; Vero C1008, 72 h) |
| --- | --- | --- | --- | --- | --- |
| C[C@@H]1COCCN1c1cc(-c2ccccc2C(F)(F)F)[nH]c(=O)c1 [Compound 1] | 2.05 µM | 3.91 µM | > 30 µM | > 30 µM |  |
| C[C@@H]1COCCN1c1cc(-c2ccccc2Cl)[nH]c(=O)c1 [Compound 2] | 0.83 µM | 2.76 µM | > 30 µM | > 30 µM |  |
| Cc1cscc1-c1cc(N2CCOC[C@H]2C)cc(=O)[nH]1 [Compound 3] | 6.39 µM |  | > 10 µM | > 10 µM | > 10 µM |
